# Experimental data taken from Sander's compilation of Henry's law constants (doi:10.1021/je970046g).
# Assay: Henry solubility constant Hcp at 293 K (mol/(m3 Pa))
# Details: reference: Hovorka and Dohnal (1997)
row,Compound,Henry solubility constant Hcp at 293 K
1,ClC(Cl)=C(Cl)Cl [tetrachloroethene],0.00084
2,"ClC(Cl)C(Cl)Cl [1,1,2,2-tetrachloroethane]",0.03
3,ClC=C(Cl)Cl [trichloroethene],0.0013
4,Clc1ccccc1 [chlorobenzene],0.0035
5,BrCBr [dibromomethane],0.015
6,ClCc1ccccc1 [(chloromethyl)-benzene],0.028
7,"Clc1cccc(Cl)c1 [1,3-dichlorobenzene]",0.0047
8,"CC(Cl)(Cl)Cl [1,1,1-trichloroethane]",0.00079
9,"ClCC(Cl)Cl [1,1,2-trichloroethane]",0.015
10,ClCCl [dichloromethane],0.0051
11,"Clc1ccc(Cl)cc1 [1,4-dichlorobenzene]",0.0054
12,Brc1ccccc1 [bromobenzene],0.0061
13,BrC(Br)Br [tribromomethane],0.023
14,"CC(Cl)CCl (centres undefined) [1,2-dichloropropane]",0.0046
